In PubChem BioAssay AID256 (DTP/NCI, 2004):
Several values for one entry are separate records, joined by “and”; a condition that tells them apart may be missing. Equal entries are not always repeated. Inconclusive results and toxic doses are left out.

Test system: CD2F1 mice, L1210 leukemia ip, survival T/C
Assay: NCI In Vivo Anticancer Drug Screen. Data for tumor model L1210 Leukemia (intraperitoneal) in CD2F1 (CDF1) mice
Conditions: higher = longer survival
In short: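 Mice carrying a transplanted tumor received test compound or vehicle alone. The value is the measurement in the treated group divided by that in the vehicle-treated control group.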

[1] = endpoint: mean survival time, dose: 100.0 mg/kg/injection, schedule: Q04DX003 (ip), vehicle: saline with Tween-80
[2] = endpoint: mean survival time, dose: 200.0 mg/kg/injection, schedule: Q04DX003 (ip), vehicle: saline with Tween-80
[3] = endpoint: mean survival time, dose: 75.0 mg/kg/injection, schedule: Q01DX001 (ip), vehicle: saline
[4] = endpoint: mean survival time, dose: 150.0 mg/kg/injection, schedule: Q01DX001 (ip), vehicle: saline
[5] = endpoint: mean survival time, dose: 25.0 mg/kg/injection, schedule: Q04DX002 (ip), vehicle: saline with Tween-80
[6] = endpoint: mean survival time, dose: 50.0 mg/kg/injection, schedule: Q04DX002 (ip), vehicle: saline with Tween-80
[7] = endpoint: mean survival time, dose: 100.0 mg/kg/injection, schedule: Q04DX002 (ip), vehicle: saline with Tween-80
[8] = endpoint: mean survival time, dose: 100.0 mg/kg/injection, schedule: Q01DX001 (ip), vehicle: Klucel (hydroxypropylcellulose) (HPC)
[9] = endpoint: mean survival time, dose: 200.0 mg/kg/injection, schedule: Q01DX001 (ip), vehicle: Klucel (hydroxypropylcellulose) (HPC)
[10] = endpoint: mean survival time, dose: 400.0 mg/kg/injection, schedule: Q01DX001 (ip), vehicle: Klucel (hydroxypropylcellulose) (HPC)
[11] = endpoint: mean survival time, dose: 100.0 mg/kg/injection, schedule: Q01DX009 (ip), vehicle: saline with Tween-80
[12] = endpoint: mean survival time, dose: 200.0 mg/kg/injection, schedule: Q01DX009 (ip), vehicle: saline with Tween-80
[13] = endpoint: mean survival time, dose: 400.0 mg/kg/injection, schedule: Q01DX009 (ip), vehicle: saline with Tween-80
[14] = endpoint: mean survival time, dose: 400.0 mg/kg/injection, schedule: Q04DX003 (ip), vehicle: saline with Tween-80
[15] = endpoint: mean survival time, dose: 100.0 mg/kg/injection, schedule: Q01DX001 (ip), vehicle: saline with Tween-80
[16] = endpoint: mean survival time, dose: 200.0 mg/kg/injection, schedule: Q01DX001 (ip), vehicle: saline with Tween-80
[17] = endpoint: mean survival time, dose: 400.0 mg/kg/injection, schedule: Q01DX001 (ip), vehicle: saline with Tween-80

SMILES: CCOC(=O)c1c(C)nc(C)c(C(=O)OCC)c1-c1cccc([N+](=O)[O-])c1
- T/C (endpoint: mean survival time, dose: 50.0 mg/kg/injection, schedule: Q04DX003 (ip), vehicle: saline with Tween-80): 97 % of control
- T/C [1]: 105 % of control
- T/C [2]: 103 % of control

SMILES: Cc1ccc(N2C(=O)C=CC2=O)cc1
- T/C (endpoint: mean survival time, dose: 5.0 mg/kg/injection, schedule: Q01DX009 (ip), vehicle: saline sonified): 94 % of control
- T/C (endpoint: mean survival time, dose: 5.0 mg/kg/injection, schedule: Q04DX003 (ip), vehicle: saline sonified): 96 % of control
- T/C (endpoint: mean survival time, dose: 10.0 mg/kg/injection, schedule: Q04DX003 (ip), vehicle: saline sonified): 98 % of control
- T/C (endpoint: mean survival time, dose: 20.0 mg/kg/injection, schedule: Q01DX009 (ip), vehicle: saline sonified): 90 % of control
- T/C (endpoint: mean survival time, dose: 20.0 mg/kg/injection, schedule: Q04DX003 (ip), vehicle: saline sonified): 96 % of control
- T/C (endpoint: mean survival time, dose: 100.0 mg/kg/injection, schedule: Q01DX009 (ip), vehicle: acetone): 88 % of control
- T/C (endpoint: mean survival time, dose: 200.0 mg/kg/injection, schedule: Q01DX009 (ip), vehicle: acetone): 88 % of control
- T/C (endpoint: mean survival time, dose: 400.0 mg/kg/injection, schedule: Q01DX009 (ip), vehicle: acetone): 93 % of control

SMILES: O=c1[nH]cnc2[nH]ccc12
- T/C [3]: 110 % of control
- T/C [4]: 96 % of control

SMILES: C1=CN2CCCN3C=CC=c4ccc(c2c43)=C1
- T/C (endpoint: mean survival time, dose: 7.5 mg/kg/injection, schedule: Q01DX001 (ip), vehicle: saline): 101 % of control
- T/C (endpoint: mean survival time, dose: 7.5 mg/kg/injection, schedule: Q04DX003 (ip), vehicle: saline): 97 % of control
- T/C (endpoint: mean survival time, dose: 15.0 mg/kg/injection, schedule: Q01DX001 (ip), vehicle: saline): 95 % of control
- T/C (endpoint: mean survival time, dose: 15.0 mg/kg/injection, schedule: Q04DX003 (ip), vehicle: saline): 105 % of control
- T/C (endpoint: mean survival time, dose: 30.0 mg/kg/injection, schedule: Q01DX001 (ip), vehicle: saline): 95 % of control
- T/C (endpoint: mean survival time, dose: 30.0 mg/kg/injection, schedule: Q04DX003 (ip), vehicle: saline): 97 % of control

SMILES: c1ccc(C[S][Sn]([c]2ccccc2)([c]2ccccc2)[c]2ccccc2)cc1
- T/C [5]: 91 % of control
- T/C [6]: 102 % of control
- T/C [7]: 94 % of control

SMILES: O=C(OCC(OC(=O)c1ccccc1)C1OC(OC(=O)c2ccccc2)C(OC(=O)c2ccccc2)C1OC(=O)c1ccccc1)c1ccccc1 (configuration not stated)
- T/C [8]: 88 % of control
- T/C [9]: 95 % of control
- T/C [10]: 95 % of control

SMILES: O=C(O)C(Br)CC(Br)C(=O)O (configuration not stated)
- T/C (endpoint: mean survival time, dose: 50.0 mg/kg/injection, schedule: Q01DX009 (ip), vehicle: saline): 93 % of control
- T/C (endpoint: mean survival time, dose: 100.0 mg/kg/injection, schedule: Q01DX009 (ip), vehicle: saline): 93 % of control

SMILES: O=C(N/N=C/c1ccccc1O)c1ccncc1
- T/C [11]: 98 % of control
- T/C [1]: 98 % of control
- T/C [12]: 95 % of control
- T/C [2]: 96 % of control
- T/C [13]: 98 % of control
- T/C [14]: 98 % of control

SMILES: CN/N=C/c1ccc(O)c(OC)c1
- T/C [11]: 91 % of control
- T/C [12]: 87 % of control

SMILES: CS(C)(O)NC(N)=O
- T/C (endpoint: median survival time, dose: 25.0 mg/kg/injection, schedule: Q01DX009 (ip), vehicle: water): 93 % of control
- T/C (endpoint: median survival time, dose: 50.0 mg/kg/injection, schedule: Q01DX009 (ip), vehicle: water): 103 % of control
- T/C (endpoint: median survival time, dose: 100.0 mg/kg/injection, schedule: Q01DX009 (ip), vehicle: water): 102 % of control
- T/C (endpoint: median survival time, dose: 200.0 mg/kg/injection, schedule: Q01DX009 (ip), vehicle: water): 91 % of control
- T/C (endpoint: median survival time, dose: 400.0 mg/kg/injection, schedule: Q01DX009 (ip), vehicle: water): 101 % of control

SMILES: c1ccc(C[P+](c2ccccc2)(c2ccccc2)c2ccccc2)cc1
- T/C (endpoint: mean survival time, dose: 0.63 mg/kg/injection, schedule: Q01DX009 (ip), vehicle: saline with Tween-80): 89 % of control
- T/C (endpoint: mean survival time, dose: 1.25 mg/kg/injection, schedule: Q01DX009 (ip), vehicle: saline with Tween-80): 100 % of control
- T/C (endpoint: mean survival time, dose: 2.5 mg/kg/injection, schedule: Q01DX009 (ip), vehicle: saline with Tween-80): 93 % of control

SMILES: Cc1ccc(OCC(=O)C2CSc3ccc(Cl)cc32)cc1 (configuration not stated)
- T/C [1]: 97 % of control
- T/C [2]: 94 % of control
- T/C [14]: 111 % of control

SMILES: Cc1ccc(N2CCOC2=O)cc1N1CCOC1=O
- T/C (endpoint: mean survival time, dose: 25.0 mg/kg/injection, schedule: Q01DX009 (ip), vehicle: other): 100 % of control
- T/C (endpoint: mean survival time, dose: 50.0 mg/kg/injection, schedule: Q01DX009 (ip), vehicle: other): 105 % of control
- T/C (endpoint: mean survival time, dose: 100.0 mg/kg/injection, schedule: Q01DX009 (ip), vehicle: other): 102 % of control

SMILES: O=C(OC(CC[P+](c1ccccc1)(c1ccccc1)c1ccccc1)(C(=O)c1ccccc1)c1ccccc1)c1ccccc1 (configuration not stated)
- T/C (endpoint: mean survival time, dose: 0.38 mg/kg/injection, schedule: Q01DX009 (ip), vehicle: saline): 104 % of control
- T/C (endpoint: mean survival time, dose: 0.75 mg/kg/injection, schedule: Q01DX009 (ip), vehicle: saline): 105 % of control
- T/C (endpoint: mean survival time, dose: 1.5 mg/kg/injection, schedule: Q01DX009 (ip), vehicle: saline): 93 % of control

SMILES: [O-]/[N+](=C\c1ccccc1)C1CCCCC1
- T/C [15]: 94 % of control
- T/C [16]: 95 % of control
- T/C [17]: 95 % of control

SMILES: Oc1c(C(Nc2ccccc2)c2ccccc2)ccc2cccnc12 (configuration not stated)
- T/C (endpoint: mean survival time, dose: 100.0 mg/kg/injection, schedule: Q01DX001 (ip), vehicle: saline): 97 % of control
- T/C (endpoint: mean survival time, dose: 200.0 mg/kg/injection, schedule: Q01DX001 (ip), vehicle: saline): 97 % of control
- T/C (endpoint: mean survival time, dose: 400.0 mg/kg/injection, schedule: Q01DX001 (ip), vehicle: saline): 100 % of control

SMILES: c1ccc(Sc2ccncc2)cc1
- T/C [5]: 102 % of control
- T/C [6]: 91 % of control
- T/C [7]: 98 % of control and 105 % of control

SMILES: OC1CCCCCCCCCCC1C(O)(C(F)(F)F)C(F)(F)F (configuration not stated)
- T/C [15]: 93 % of control and 89 % of control
- T/C [11]: 86 % of control
- T/C [16]: 89 % of control
- T/C [12]: 91 % of control
- T/C [17]: 91 % of control
- T/C [13]: 97 % of control

SMILES: S=c1[nH]ccn1-c1cccc(Br)c1
- T/C [11]: 112 % of control
- T/C [12]: 103 % of control
- T/C [13]: 112 % of control

SMILES: COc1ccccc1NC(=O)Nc1ccc(C(=O)OCC(C)C)cc1
- T/C [11]: 89 % of control
- T/C [1]: 92 % of control
- T/C [12]: 88 % of control
- T/C [2]: 88 % of control
- T/C [14]: 86 % of control

SMILES: NC(N)=NC(N)=Nc1cnccn1
- T/C (endpoint: mean survival time, dose: 25.0 mg/kg/injection, schedule: Q01DX009 (ip), vehicle: saline sonified): 91 % of control
- T/C (endpoint: mean survival time, dose: 25.0 mg/kg/injection, schedule: Q04DX003 (ip), vehicle: saline): 104 % of control
- T/C (endpoint: mean survival time, dose: 50.0 mg/kg/injection, schedule: Q01DX009 (ip), vehicle: saline sonified): 97 % of control
- T/C (endpoint: mean survival time, dose: 50.0 mg/kg/injection, schedule: Q04DX003 (ip), vehicle: saline): 98 % of control
- T/C [3]: 95 % of control
- T/C (endpoint: mean survival time, dose: 100.0 mg/kg/injection, schedule: Q01DX009 (ip), vehicle: saline sonified): 95 % of control
- T/C (endpoint: mean survival time, dose: 100.0 mg/kg/injection, schedule: Q04DX003 (ip), vehicle: saline): 104 % of control
- T/C [4]: 93 % of control

SMILES: CC(=O)C(Cl)C(=O)c1c(C)[nH]n(-c2ccccc2)c1=O (configuration not stated)
- T/C (endpoint: median survival time, dose: 25.0 mg/kg/injection, schedule: Q01DX005 (ip), vehicle: Klucel (hydroxypropylcellulose) (HPC)): 112 % of control
- T/C (endpoint: median survival time, dose: 50.0 mg/kg/injection, schedule: Q01DX005 (ip), vehicle: Klucel (hydroxypropylcellulose) (HPC)): 111 % of control
- T/C (endpoint: median survival time, dose: 100.0 mg/kg/injection, schedule: Q01DX005 (ip), vehicle: Klucel (hydroxypropylcellulose) (HPC)): 111 % of control

SMILES: COC(=O)c1ccc(C2CCC(OC(c3ccccc3)c3ccccc3)CC2)cc1 (configuration not stated)
- T/C [2]: 89 % of control
- T/C [14]: 91 % of control

SMILES: COC(=O)c1ccccc1-c1c(C)cccc1[N+](=O)[O-]
- T/C [8]: 98 % of control
- T/C [9]: 87 % of control
- T/C [10]: 89 % of control

SMILES: CSC(=N/N=C/c1ccccc1O)SC
- T/C [1]: 98 % of control
- T/C [2]: 96 % of control
- T/C [14]: 96 % of control

SMILES: CC(CCOP(=O)(N(CCCl)CCCl)N1CC1)OCc1ccccc1 (configuration not stated)
- T/C (endpoint: mean survival time, dose: 22.0 mg/kg/injection, schedule: Q01DX001 (ip), vehicle: other): 108 % of control
- T/C (endpoint: mean survival time, dose: 33.0 mg/kg/injection, schedule: Q01DX001 (ip), vehicle: other): 111 % of control
- T/C (endpoint: mean survival time, dose: 50.0 mg/kg/injection, schedule: Q01DX001 (ip), vehicle: other): 153 % of control
